This note sets out measurements from ChEMBL document CHEMBL1127186, “Probing a catalytic antibody active site using spin-labelled haptens” (Bioorg Med Chem Lett, 1993).

A short description of series [1]: Compound was evaluated for the inhibition of antibody (Antibody 48G7) catalyzed reaction.
Series [2] is described as follows: Kinetic parameter of antibody 48G7 in 10 mM Tris HCl, 50 mM NaCl, pH 8.27.
Series [3] in a line: Dissociation constant from ESR titration experiments. Type of series: physicochemical.

A word on the Ki: it is the dissociation constant of the complex between target and ligand, obtained from inhibition or displacement. Low values mean a stronger hold on the target, high ones a looser hold on the target. The compound `Cc1cccc(P(=O)(O)O)c1[N+](=O)[O-]` [METHYLNITROPHENYLPHOSPHONATE] registered a Ki in series [1] of 560 nM.

Turning to `CC(=O)Oc1ccc([N+](=O)[O-])cc1`, the k cat in series [2] is 3.8 min⁻¹.

The Km is the substrate concentration at which the rate is half of its maximum. As for `COC(=O)Oc1ccc([N+](=O)[O-])cc1`, in series [2], the Km worked out at 430 µM and the k cat is 7.4 min⁻¹. What is called Kd is the free concentration of one partner at which half of the binding sites on the other are occupied at equilibrium, for simple one-to-one binding. Low readings indicate tighter binding, high ones weaker binding. In turn, `CC1(C)CC(OP(=O)(O)Oc2ccc([N+](=O)[O-])cc2)CC(C)(C)N1[O]` displayed a dissociation constant (Kd) in series [3] of 4.3 µM. Same read-out and setting: to `CC1(C)CC(OP(=O)(O)Oc2ccc([N+](=O)[O-])cc2)C(C)(C)N1[O]` (stereo not given) belongs 6.4 µM. Regarding `COC(=O)CCCOC(=O)Oc1ccc([N+](=O)[O-])cc1`, in series [2], the Km was 360 µM and the k cat was 26.2 min⁻¹. For `COC(=O)CCCC(=O)Oc1ccc([N+](=O)[O-])cc1`, in series [2], the Km is 300 µM and the k cat was found to be 22 min⁻¹.
